Measurements published in ChEMBL document CHEMBL4406824, “Phenolic N-monosubstituted carbamates: Antitubercular and toxicity evaluation of multi-targeting compounds” (Eur J Med Chem, 2019).
Converted amounts (≈) assume the structure as drawn.

Key:
[1] = system: Mycobacterium tuberculosis; assay type: functional, H37Rv 331/88; parameters: reference not given here
Mycobacterium avium [2] = test: Antimycobacterial activity against Mycobacterium avium 330/88 after 21 days; assay type: functional; settings: 330/88, 504 h
Mycobacterium kansasii [3] = test: Antimycobacterial activity against Mycobacterium kansasii 235/80 after 14 days; assay type: functional; settings: 235/80, 336 h
[4] = system: Mycobacterium tuberculosis; assay type: functional; settings: H37Rv 331/88, 336 h
Mycobacterium avium [5] = test: Antimycobacterial activity against Mycobacterium avium 330/88 after 14 days; assay type: functional; settings: 330/88, 336 h
[6] = system: Mycobacterium tuberculosis; test: Antimycobacterial activity against Mycobacterium tuberculosis H37Ra ITM-M006710 after 48 hr by resazurin dye based microdilution method; assay type: functional; settings: H37Ra ITM-M006710, 48 h
Mycobacterium kansasii [7] = test: Potency index, ratio of p-aminosalicylic acid MIC to compound MIC for antimycobacterial activity against Mycobacterium kansasii 235/80; assay type: functional
Mycobacterium kansasii [8] = test: Antimycobacterial activity against Mycobacterium kansasii 6509/96 after 14 days; assay type: functional; settings: 6509/96, 336 h
[9] = system: Mycobacterium tuberculosis; test: Antimycobacterial activity against XDR Mycobacterium tuberculosis Praha 131 after 21 days; assay type: functional; settings: Praha 131, 504 h
Mycobacterium kansasii [10] = test: Antimycobacterial activity against Mycobacterium kansasii 235/80 after 7 days; assay type: functional; settings: 235/80, 168 h
[11] = system: Mycobacterium tuberculosis; assay type: functional; settings: H37Rv 331/88, 504 h
Mycobacterium kansasii [12] = test: Antimycobacterial activity against Mycobacterium kansasii 6509/96 after 7 days; assay type: functional; settings: 6509/96, 168 h
[13] = system: Mycobacterium tuberculosis; test: Antimycobacterial activity against XDR Mycobacterium tuberculosis Praha 131 after 14 days; assay type: functional; settings: Praha 131, 336 h
HepG2 [14] = test: Cytostatic activity against human HepG2 cells preincubated for overnight in serum free medium followed by compound wash out and further incubated for 72 hrs in presence of serum by MTT assay; assay type: ADME, cell-based
Mycobacterium kansasii [15] = test: Potency index, ratio of p-aminosalicylic acid MIC to compound MIC for antimycobacterial activity against Mycobacterium kansasii 6509/96; assay type: functional
Mycobacterium kansasii [16] = test: Antimycobacterial activity against Mycobacterium kansasii 235/80 after 21 days; assay type: functional; settings: 235/80, 504 h
[17] = system: Mycobacterium tuberculosis H37Rv; test: Inhibition of recombinant Mycobacterium tuberculosis H37Rv ICL1 expressed in Escherichia coli BL21 (DE3) cells at 10 uM using (+)-potassium Ds-threo-isocitrate as substrate by glyoxylate phenyl hydrazone formation assay relative to control
[18] = system: Mycolicibacterium smegmatis; test: Antimycobacterial activity against Mycobacterium smegmatis DSM 43465 after 120 hr by resazurin dye based microdilution method; assay type: functional; settings: DSM 43465, 120 h
HepG2 [19] = test: Cytotoxicity against human HepG2 cells assessed as reduction in cell viability after overnight incubation by MTT assay; assay type: cell-based
in vitro = settings: human, HepG2 cells
Description: Selectivity index, ratio of IC50 for human HepG2 cells to MIC for antimycobacterial activity against Mycobacterium tuberculosis H37Rv

Mycolicibacterium aurum = test: Antimycobacterial activity against Mycobacterium aurum DSM 43999 after 72 hr by resazurin dye based microdilution method; assay type: functional; settings: DSM 43999, 72 h
Mycobacterium kansasii [20] = test: Antimycobacterial activity against Mycobacterium kansasii 6509/96 after 21 days; assay type: functional; settings: 6509/96, 504 h
Isocitrate lyase = target: T1, Isocitrate lyase (Mycobacterium tuberculosis, UniProt P9WKK7); test: Inhibition of recombinant Mycobacterium tuberculosis ICL expressed in Escherichia coli BL21 (DE3) cells using DL-isocitric acid trisodium salt hydrate as substrate after 30 mins
T1 sequence (P9WKK7 whole entry): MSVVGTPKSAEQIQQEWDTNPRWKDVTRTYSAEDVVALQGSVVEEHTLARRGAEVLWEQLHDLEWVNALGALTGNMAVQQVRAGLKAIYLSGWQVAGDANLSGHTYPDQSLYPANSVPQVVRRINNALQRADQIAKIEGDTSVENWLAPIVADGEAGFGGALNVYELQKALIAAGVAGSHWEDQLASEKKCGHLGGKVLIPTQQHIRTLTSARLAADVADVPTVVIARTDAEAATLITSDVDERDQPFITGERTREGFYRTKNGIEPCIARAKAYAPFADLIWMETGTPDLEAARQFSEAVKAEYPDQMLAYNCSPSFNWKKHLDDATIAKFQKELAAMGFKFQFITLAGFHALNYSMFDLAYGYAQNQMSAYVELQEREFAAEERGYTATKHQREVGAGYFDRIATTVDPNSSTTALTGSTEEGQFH

Mycobacterium avium [21] = test: Potency index, ratio of p-aminosalicylic acid MIC to compound MIC for antimycobacterial activity against Mycobacterium avium 330/88; assay type: functional

Structure (SMILES)	Ratio [1]	MIC (Mycobacterium avium [2]) [µM]	MIC (Mycobacterium kansasii [3]) [µM]	MIC [4] [µM]	MIC (Mycobacterium avium [5]) [µM]	MIC [6] [µM]	Ratio (Mycobacterium kansasii [7])	MIC (Mycobacterium kansasii [8]) [µM]	MIC [9] [µM]	MIC (Mycobacterium kansasii [10]) [µM]	MIC [11] [µM]	MIC (Mycobacterium kansasii [12]) [µM]	MIC [13] [µM]	IC50 (HepG2 [14]) [µM]	Ratio (Mycobacterium kansasii [15])	MIC (Mycobacterium kansasii [16]) [µM]	inhibition [17] [%]	MIC [18] [µM]	IC50 (HepG2 [19]) [µM]	selectivity ratio (in vitro)	other results
O=C(NC1CCCCC1)Oc1ccc(Cl)cc1C(=O)Nc1ccc(C(F)(F)F)cc1	>125	8 (≈ 3.53 µg/mL)	4 (≈ 1.76 µg/mL)	1 (≈ 0.441 µg/mL)	8 (≈ 3.53 µg/mL)	≤ 0.88	>250	4 (≈ 1.76 µg/mL)	1 (≈ 0.441 µg/mL)	4 (≈ 1.76 µg/mL)	1 (≈ 0.441 µg/mL)	2 (≈ 0.882 µg/mL)	0.5 (≈ 0.22 µg/mL)	0.75	>250	8 (≈ 3.53 µg/mL)	14	≤ 0.88	> 125	> 125	MIC (Mycolicibacterium aurum): ≤ 0.88 µM; MIC (Mycobacterium kansasii [20]): 4 µM (≈ 1.76 µg/mL)
COC(=O)/C=C/C(=O)c1ccc(OC)cc1																					IC50 (Isocitrate lyase): 30.9 µM
O=C(Nc1ccccc1)Oc1ccc(Cl)cc1C(=O)Nc1ccc(C(F)(F)F)cc1	>125	8 (≈ 3.48 µg/mL)	4 (≈ 1.74 µg/mL)	≤ 0.5	8 (≈ 3.48 µg/mL)	≤ 0.9	>250	4 (≈ 1.74 µg/mL)	1 (≈ 0.435 µg/mL)	4 (≈ 1.74 µg/mL)	1 (≈ 0.435 µg/mL)	2 (≈ 0.87 µg/mL)	1 (≈ 0.435 µg/mL)	2.45	>250	4 (≈ 1.74 µg/mL)	13	≤ 0.9	9.8	9.8 to 19.6	MIC (Mycolicibacterium aurum): ≤ 0.9 µM; MIC (Mycobacterium kansasii [20]): 4 µM (≈ 1.74 µg/mL)
O=C(NCCc1ccccc1)Oc1ccc(Cl)cc1C(=O)Nc1ccc(C(F)(F)F)cc1	>125	8 (≈ 3.7 µg/mL)	4 (≈ 1.85 µg/mL)	≤ 0.5	8 (≈ 3.7 µg/mL)	0.84 to 1.69 (≈ 0.389 to 0.782 µg/mL)	>250	4 (≈ 1.85 µg/mL)	2 (≈ 0.926 µg/mL)	4 (≈ 1.85 µg/mL)	1 (≈ 0.463 µg/mL)	2 (≈ 0.926 µg/mL)	2 (≈ 0.926 µg/mL)	1	>250	8 (≈ 3.7 µg/mL)	11	≤ 0.84	> 125	> 125	MIC (Mycolicibacterium aurum): ≤ 0.84 µM; MIC (Mycobacterium kansasii [20]): 4 µM (≈ 1.85 µg/mL)
O=C(NC12CC3CC(CC(C3)C1)C2)Oc1ccc(Cl)cc1C(=O)Nc1ccc(C(F)(F)F)cc1	>125	4 (≈ 1.97 µg/mL)	4 (≈ 1.97 µg/mL)	≤ 0.5	4 (≈ 1.97 µg/mL)	2 (≈ 0.986 µg/mL)	>250	4 (≈ 1.97 µg/mL)	1 (≈ 0.493 µg/mL)	4 (≈ 1.97 µg/mL)	1 (≈ 0.493 µg/mL)	4 (≈ 1.97 µg/mL)	1 (≈ 0.493 µg/mL)	4.85	>250	4 (≈ 1.97 µg/mL)	15	4 (≈ 1.97 µg/mL)	> 125	> 125	Ratio (Mycobacterium avium [21]): >31; MIC (Mycolicibacterium aurum): ≤ 0.79 µM; MIC (Mycobacterium kansasii [20]): 4 µM (≈ 1.97 µg/mL)
